Source: US20130189366A1, “DRUG DELIVERY SYSTEMS AND METHODS OF USE” (Brown University, priority 2012, published 2013)
Where a name gives a salt, the structure may show the parent alone.

Assays:
[1] = test system: CHO-K1 Tet-IGF1 cells; assay: Co-culture of CHO-K1 Tet-IGF1 cells with DOX loaded PLGA microspheres or bolus DOX, IGF-1 ELISA; format: cell-based, Chinese hamster; settings: total 2 μg DOX over 24 hours, unencapsulated and encapsulated cultures
Procedure: Cells were encapsulated and encapsulated cell count and viability were determined as described in Examples 1 and 2. Microencapsulated and unencapsulated CHO-K1 Tet-IGF1 cells were co-cultured with DOX loaded PLGA microspheres to assess DOX-inducible IGF-1 synthesis and delivery. Approximately 5×10^5 encapsulated or 5×10^4 unencapsulated cells were plated per well in 12-well plates. After incubating cultures for 24 hours at 37° C., medium was completely removed from each well and 2 mL fresh media containing one of the following was added to each well (n=3): 1 μg/mL DOX (Clontech), 1.6 mg of DOX loaded PLGA microspheres, 1.6 mg of unloaded PLGA control microspheres, or no DOX. The mass of spheres used in these studies was calculated to release a total of 2 μg of DOX after 24 hours of incubation as determined by the results of the cumulative in vitro release. Cultures were incubated for another 24 hours, at which time the supernatant from each culture was removed and stored at −20° C. for later measurement. For unencapsulated cultures, cells were trypsinized and counted using Trypan Blue exclusion. For encapsulated cultures, cells were collected via alginate solubilization prior to counting. IGF-1 was quantified as described in Example 2.

[2] = test system: tetracycline inducible gene expression system (CHO-K1 Tet-IGF1 cells); assay: DOX-induced IGF-1 release from CHO-K1 Tet-IGF1 cells (ELISA); format: cell-based, Chinese hamster; settings: encapsulated and unencapsulated CHO-K1 Tet-IGF1 cells, 24 hours
Procedure: Chinese hamster ovary cells (CHO-K1 Tet-On, Clontech Laboratories, Mountain View, Calif.), stably transfected to express the transactivator protein (rtTA) for a tetracycline inducible gene expression system, were cultured at 37° C. and 5% CO2 in DMEM supplemented with 10% tetracycline-free FBS (Clontech), 1% penicillin/streptomycin (Invitrogen, Carlsbad, Calif.), and 200 μg/mL G418 (Sigma-Aldrich). All cell counting was done using Trypan Blue exclusion and the COUNTESS® Automated Cell Counter (Invitrogen). […]
The quantity of human IGF-1 from each supernatant sample was determined using ELISA (R&D Systems, Minneapolis, Minn.) and SPECTRAMAX® Absorbance plate reader (Molecular Devices, Sunnydale, Calif.). All samples were run in triplicate and amount released was normalized to one million viable cells per sample as counted at the end of each study.
Modified and unmodified cells were plated in 6-well tissue culture plates at a density of 3×10^5 cells per well (n=6 per cell type). […] At the end of the study, cells were trypsinized and counted.
Modified encapsulated and unencapsulated cells were plated into 12-well tissue culture plates. […] At the end of the study, cells were trypsinized and counted.
Encapsulated modified and unmodified cells were plated in 12-well tissue culture plates at an equal density per well and cultured at 32° C. […] On day 10, capsules were solubilized and cells were counted.

SMILES: C[C@H]1c2cccc(O)c2C(=O)C2=C(O)[C@]3(O)C(=O)C(C(N)=O)=C(O)[C@@H](N(C)C)[C@@H]3[C@@H](O)[C@@H]21 [DOX, doxycycline hydrochloride]
- IGF-1 synthesis and delivery after 24 hours [1]: induced
- DOX concentration giving detectable IGF-1 release [2]: ≥ 0.125 µg/mL
